{"source": "the NIST ThermoML archive (doi:10.1021/je1011423)", "conditions": "Crystal; thermal gravimetric analysis", "note": "Numbers after ± are expanded uncertainties.", "data": [{"smiles": "O=[N+]([O-])c1cc([N+](=O)[O-])c(O)c(Cl)c1O", "note": "[2-chloro-4,6-dinitroresorcinol]", "values": [{"measurement": "Normal melting temperature", "result": "185.00 ± 0.01", "unit": "°C"}]}]}
